Molecular target: T1, human A2a receptor (Homo sapiens, UniProt P29274)
T1 construct: purchased Perkin-Elmer RBHA2AM400UA; host or cells: HEK293 cell membranes
Assay: A2a receptor competition binding assay using Scintillation Proximity technology
Details: membranes from HEK293 cells expressing human A2a receptor; 0.5 nM tritiated radioligand; SPA beads; 1 h room temperature
Procedure: Binding affinities of compounds of the invention for the human A2a receptor were determined in a competition binding assay using Scintillation Proximity technology. Thus, 0.3 μg of membranes from HEK293 cells expressing the human A2a receptor were incubated with a compound of the invention at concentrations ranging from 3000 nM to 0.15 nM in a reaction mixture containing also 0.5 nM of a tritiated form of 5-amino-7-[2-phenethyl]-2-(furan-2-yl)-7H-pyrazolo[4,3-e][1,2,4]triazolo[1,5-c]pyrimidine (the tritiated compound) and 100 μg of wheat germ agglutin-coated yttrium silicate SPA beads for one hour at room temperature with agitation. The beads were then allowed to settle to the bottom of the wells for 1 hr, after which the membrane-associated radioactivity was determined by scintillation counting in a TopCount microplate reader. Ki values were determined using the Cheng-Prusoff equation.
Summary of Materials and Methods Used in A2a Activity Determination:
HEK293 cells expressing the human, rat, dog or monkey adenosine 2a receptor (Purchased from Perkin-Elmer # RBHA2AM400UA).
The Tritiated compound was prepared in-house by MRL Radiochemistry according to published methods.
Wheat germ agglutinin-coated yttrium silicate SPA beads (GE Healthcare#RPNQ0023). Dilute to 25 mg/ml in assay buffer.
Assay Buffer was prepared in house: Dulbecco's calcium and magnesium free phosphate buffered saline+10 mM MgCl2
Adenosine deaminase from calf intestine, 10 mg/2 ml (Roche) 10 102 105 001).
A2a antagonist standard (9-chloro-1-(2-furanyl)-[1,2,4]triazolo1,5-c]quinazolin-5-amine from Tocris Bioscience)
Make eight 1:3 serial dilutions in 100% DMSO from a 3 mM compound stock
Transfer 50 nl of compound into a 384-well OptiPlate (Perkin Elmer).
Typically, final concentrations of compound used in the assay ranged from 3000 nM to 0.152 nM.
Dilute a solution of the Tritiated compound to 1.25 nM in assay buffer. This is a 2.5× solution. The final concentration in the assay is 0.5 nM. Calculate the concentration by counting two 5 μl aliquots.
Use 0.25 ug of membrane/well. Dilute membranes to 9.7 μg/ml in assay buffer. Treat with 20 ug/ml adenosine deaminase (ADA) for 15 minutes at room temperature to degrade endogenous adenosine.
Use 100 μg/well wheat germ agglutinin-coated yttrium silicate SPA beads.
Mix ADA-treated membranes and SPA beads together for 30 min prior to assay.
To the Perkin-Elmer Optiplate-384 containing the compound titration add 20 μl of 2.5× solution of the Tritiated compound and 30 μl of the membrane-bead mixture. Incubate for one hour at room temperature with agitation.
Include total binding (assay buffer+1% DMSO) and non-specific binding (CGS15943, 1 μM) wells.
Allow the beads to settle for one hour.
A curve fitting program (i.e., Prism, Activity Base, Chemcart) is used to determine the EC50. The Ki value is calculated using the Cheng-Prusoff equation: K i=EC50/(1+(radioligand concentration/Kd)).

T1 sequence (P29274 whole entry): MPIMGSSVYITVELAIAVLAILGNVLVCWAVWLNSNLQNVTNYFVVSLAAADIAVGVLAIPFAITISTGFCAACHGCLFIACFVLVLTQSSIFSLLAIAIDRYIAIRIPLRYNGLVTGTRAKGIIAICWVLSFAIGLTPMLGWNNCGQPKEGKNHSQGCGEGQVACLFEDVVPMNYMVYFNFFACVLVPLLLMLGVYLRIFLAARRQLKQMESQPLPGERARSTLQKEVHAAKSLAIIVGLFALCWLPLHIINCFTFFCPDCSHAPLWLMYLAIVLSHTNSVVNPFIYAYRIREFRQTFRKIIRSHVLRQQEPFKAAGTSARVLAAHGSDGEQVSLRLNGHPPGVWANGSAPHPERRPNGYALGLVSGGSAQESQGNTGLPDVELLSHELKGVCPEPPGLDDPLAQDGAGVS

Structure (SMILES)	EC50
Nc1nc2cc(F)ccc2c2nc(CCN3CCc4ccccc4C3)nn12 [Ex-93]	37.5 nM
Nc1nc2cc(F)ccc2c2nc(CCN3Cc4ccc(F)cc4C3)nn12 [Ex-91, 8-fluoro-2-[2-(5-fluoro-1,3-dihydro-2H-isoindol-2-yl)ethyl][1,2,4]triazolo[1,5-c]quinazolin-5-amine]	26.1 nM
CCOC(=O)c1nnc2n1CCN(Cc1nc3c4cccc(OC)c4nc(N)n3n1)C2 [Ex-139, ethyl 7-((5-amino-7-methoxy-[1,2,4]triazolo[1,5-c]quinazolin-2-yl)methyl)-5,6,7,8-tetrahydro-[1,2,4]triazolo[4,3-a]pyrazine-3-carboxylate]	110 nM
CCc1ncc2n1CCN(CCc1nc3c4cccc(OC)c4nc(N)n3n1)C2 [Ex-13, 2-(2-(3-ethyl-5,6-dihydroimidazo[1,5-a]pyrazin-7(8H)-yl)ethyl)-7-methoxy-[1,2,4]triazolo[1,5-c]quinazolin-5-amine]	2.2 nM
COc1cccc2c1nc(N)n1nc(CCN3Cc4ccc(N5CCN(c6ccc(F)cc6)CC5)nc4C3)nc21 [Ex-71]	2.9 nM
COc1cccc2c1nc(N)n1nc(CCN3CCn4c(cnc4C(C)C)C3)nc21 [Ex-8, 2-(2-(3-isopropyl-5,6-dihydroimidazo[1,5-a]pyrazin-7(8H)-yl)ethyl)-7-methoxy-[1,2,4]triazolo[1,5-c]quinazolin-5-amine]	2.2 nM
Nc1nc2c(F)cccc2c2nc(CCN3Cc4cccc(F)c4C3)nn12 [Ex-89]	47.7 nM
COc1cccc2c1nc(N)n1nc(C[C@@H](N3Cc4cccnc4C3)C(F)(F)F)nc21 [Ex-110]	39.9 nM
COc1cccc2c1nc(N)n1nc(CCN3Cc4ccc(C(F)(F)F)cc4C3)nc21 [Ex-46, 7-methoxy-2-(2-(5-(trifluoromethyl)isoindolin-2-yl)ethyl)-[1,2,4]triazolo[1,5-c]quinazolin-5-amine]	18 nM
CCCC(Cc1nc2c3cccc(OC)c3nc(N)n2n1)N1Cc2cccnc2C1 (centres unmarked) [Ex-115]	21.6 nM
COc1cc(F)cc2c1nc(N)n1nc(CCN3Cc4cccnc4C3)nc21 [Ex-98]	19 nM
COc1cccc2c1nc(N)n1nc(CCN3CCc4c(C(F)(F)F)n[nH]c4C3)nc21 [Ex-42, 7-methoxy-2-(2-(3-(trifluoromethyl)-4,5-dihydro-1H-pyrazolo[3,4-c]pyridin-6(7H)-yl)ethyl)-[1,2,4]triazolo[1,5-c]quinazolin-5-amine]	1.4 nM
COc1cccc2c1nc(N)n1nc(C[C@@H](C)N3CCc4nc(C)oc4C3)nc21 [Ex-211, (R)-7-methoxy-2-(2-(2-methyl-6,7-dihydrooxazolo[5,4-c]pyridin-5(4H)-yl)propyl)-[1,2,4]triazolo[1,5-c]quinazolin-5-amine]	3 nM
COc1cc(F)cc2c1nc(N)n1nc(CN3Cc4cccnc4C3)nc21 [Ex-164, 2-((5H-pyrrolo[3,4-b]pyridin-6(7H)-yl)methyl)-9-fluoro-7-methoxy-[1,2,4]triazolo[1,5-c]quinazolin-5-amine]	8.6 nM

Continued, values first:

EC50	Structure (SMILES)
4.4 nM	COc1cccc2c1nc(N)n1nc(CN3CCc4ccc(-c5cncnc5)cc4C3)nc21 [Ex-165, 7-methoxy-2-((7-(pyrimidin-5-yl)-3,4-dihydroisoquinolin-2(1H)-yl)methyl)-[1,2,4]triazolo[1,5-c]quinazolin-5-amine]
6.1 nM	COc1cccc2c1nc(N)n1nc(CCN3CCc4ccc(-c5cncnc5)cc4C3)nc21 [Ex-172, 7-methoxy-2-(2-(7-(pyrimidin-5-yl)-3,4-dihydroisoquinolin-2(1H)-yl)ethyl)-[1,2,4]triazolo[1,5-c]quinazolin-5-amine]
7.9 nM	COc1cccc2c1nc(N)n1nc(CN3CCCc4ccccc4C3)nc21 [Ex-132, 2-((4,5-dihydro-1H-benzo[c]azepin-2(3H)-yl)methyl)-7-methoxy-[1,2,4]triazolo[1,5-c]quinazolin-5-amine]
2.8 nM	COc1cccc2c1nc(N)n1nc(CN3CCc4ccc(-c5cnn(C)c5C(F)(F)F)cc4C3)nc21 [Ex-182, 7-methoxy-2-((7-(1-methyl-5-(trifluoromethyl)-1H-pyrazol-4-yl)-3,4-dihydroisoquinolin-2(1H)-yl)methyl)-[1,2,4]triazolo[1,5-c]quinazolin-5-amine]
104 nM	COc1cccc2c1nc(N)n1nc(CN3CCn4c(Br)nnc4C3)nc21 [Ex-140, 2-((3-bromo-5,6-dihydro-[1,2,4]triazolo[4,3-a]pyrazin-7(8H)-yl)methyl)-7-methoxy-[1,2,4]triazolo[1,5-c]quinazolin-5-amine]
5.4 nM	COc1cccc2c1nc(N)n1nc(CN3Cc4cccnc4C3)nc21 [Ex-118, 2-((5H-pyrrolo[3,4-b]pyridin-6(7H)-yl)methyl)-7-methoxy-[1,2,4]triazolo[1,5-c]quinazolin-5-amine]
11.1 nM	COc1cccc2c1nc(N)n1nc(CCN3Cc4ccccc4C3)nc21 [Ex-24, 2-(2-(isoindolin-2-yl)ethyl)-7-methoxy-[1,2,4]triazolo[1,5-c]quinazolin-5-amine]
4 nM	COc1cccc2c1nc(N)n1nc(CCN3CCc4ncncc4C3)nc21 [Ex-54, 2-(2-(7,8-dihydropyrido[4,3-d]pyrimidin-6(5H)-yl)ethyl)-7-methoxy-[1,2,4]triazolo[1,5-c]quinazolin-5-amine]
48.2 nM	COc1cccc2c1nc(N)n1nc(CN3CCc4cncnc4C3)nc21 [Ex-151, 2-((5,6-dihydropyrido[3,4-d]pyrimidin-7(8H)-yl)methyl)-7-methoxy-[1,2,4]triazolo[1,5-c]quinazolin-5-amine]
4.6 nM	COc1cccc2c1nc(N)n1nc(CCN3Cc4ccc(F)cc4C3)nc21 [Ex-48, 2-(2-(5-fluoroisoindolin-2-yl)ethyl)-7-methoxy-[1,2,4]triazolo[1,5-c]quinazolin-5-amine]
1.4 nM	COc1cccc2c1nc(N)n1nc(CCN3CCc4c(cnn4C4CC4)C3)nc21 [Ex-7, 2-(2-(1-cyclopropyl-6,7-dihydro-1H-pyrazolo[4,3-c]pyridin-5(4H)-yl)ethyl)-7-methoxy-[1,2,4]triazolo[1,5-c]iquinazolin-5-amine]
5.6 nM	COc1cccc2c1nc(N)n1nc(CN3CCc4cccnc4C3)nc21 [Ex-123, 2-((5,6-dihydro-1,7-naphthyridin-7(8H)-yl)methyl)-7-methoxy-[1,2,4]triazolo[1,5-c]quinazolin-5-amine]
27.3 nM	COc1cccc2c1nc(N)n1nc(CN3CCc4ccncc4C3)nc21 [Ex-125, 2-((3,4-dihydro-2,7-naphthyridin-2(1H)-yl)methyl)-7-methoxy-[1,2,4]tri azolo[1,5-c]quinazolin-5-amine]
1.8 nM	COc1cccc2c1nc(N)n1nc(CCN3CCc4sccc4C3)nc21 [Ex-39]
7.7 nM	COc1cccc2c1nc(N)n1nc(CCCN3Cc4cccnc4C3)nc21 [Ex-227, 2-(3-(5H-pyrrolo[3,4-b]pyridin-6(7H)-yl)propyl)-7-methoxy-[1,2,4]triazolo[1,5-c]quinazolin-5-amine]
1.7 nM	COc1cccc2c1nc(N)n1nc(CCN3CCc4nc(C)sc4C3)nc21 [Ex-29, 7-methoxy-2-(2-(2-methyl-6,7-dihydrothiazolo[5,4-c]pyridin-5(4H)-yl)ethyl)-[1,2,4]triazolo[1,5-c]quinazolin-5-amine]
21.7 nM	Cc1cccc2c1nc(N)n1nc(CN3CCc4cccnc4C3)nc21 [Ex-201]
19.1 nM	Nc1nc2c(F)cccc2c2nc(CCN3CCc4ccccc4C3)nn12 [Ex-87]
5.4 nM	COc1cccc2c1nc(N)n1nc(CCN3Cc4cnn(C)c4C3)nc21 [Ex-246, 7-methoxy-2-(2-(1-methylpyrrolo[3,4-c]pyrazol-5(1H,4H,6H)-yl)ethyl)-[1,2,4]triazolo[1,5-c]quinazolin-5-amine]
27.8 nM	COc1cccc2c1nc(N)n1nc(CN3Cc4cnc(C(F)(F)F)nc4C3)nc21 [Ex-152, 7-methoxy-2-((2-(trifluoromethyl)-5H-pyrrolo[3,4-d]pyrimidin-6(7H)-yl)methyl)-[1,2,4]triazolo[1,5-c]quinazolin-5-amine]
11.2 nM	COc1cccc2c1nc(N)n1nc(CN3CCc4ccc(-c5ccccc5C(F)(F)F)cc4C3)nc21 [Ex-185, 7-methoxy-2-((7-(2-(trifluoromethyl)phenyl)-3,4-dihydroisoquinolin-2(1H)-yl)methyl)-[1,2,4]triazolo[1,5-c]quinazolin-5-amine]

Reference: US10011615B2, “Heterobicyclo-substituted [1,2,4]triazolo[1,5-c]quinazolin-5-amine compounds with A2A anatagonist properties” (Merck Sharp & Dohme Corp., priority 2012, dated 2018)
